For 21 compounds, EC50 and IC50 results are on record in US11267825B2 (AICURIS GMBH & CO. KG, priority 2017, dated 2022).

Each structure is given as a SMILES string.

One assay has as its system HBV. The assay is described as follows: Determination of HBV DNA from the supernatants of HepAD38 cells (anti-HBV activity). To be noted: Hepatitis B virus, 144 h; HBV DNA in HepAD38 supernatant at day 6; read-out: Cell Activity (EC50). Format: cell-based, hepatitis B virus. The essentials:
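EC50 values were obtained by non-linear regression of HBV DNA copy numbers measured by qPCR against pCH-9/3091 plasmid standards. The DNA came from filtered supernatants collected on day 6. Before that, tetracycline-withdrawn HepAD38 cells had been exposed to serial half-log compound dilutions, with tetracycline-treated cells as the non-producing control.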

For a further assay, the target named is HBV core protein (UniProt P03146). Format: biochemical. To be noted: read-out: Assembly Activity (IC50); BODIPY-FL labelled core protein, assembly started with NaCl, read after 6 min. The essentials:
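Compounds tested at 8 concentrations in 0.5-log steps from 100, 31.6 or 10 μM against 1.0–2.0 μM BODIPY-FL-labelled Cys150 core dimers (residues 1–149), 50 mM HEPES pH 7.5. NaCl ([…] final) triggered assembly; quenching read at 6 min, 477/525 nm, with 2.5 M and 0 M NaCl as controls; EC50 by nonlinear fit.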

HBV core protein, sequence (P03146 whole entry, looked up, the tested form may be a part): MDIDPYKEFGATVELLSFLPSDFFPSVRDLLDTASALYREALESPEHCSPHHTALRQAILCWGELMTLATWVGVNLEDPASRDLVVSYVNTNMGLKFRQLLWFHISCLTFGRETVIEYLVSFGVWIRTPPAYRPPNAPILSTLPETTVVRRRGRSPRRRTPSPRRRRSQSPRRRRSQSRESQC

Turning to `Cc1nc2c(s1)CN(C(=O)c1cc3ccc(Cl)cc3[nH]1)CC2` [Example 162], in the assay on HBV, the EC50 was under 1 µM. Moreover, at HBV core protein, the IC50 was under 5 µM.
As to `O=C(c1cc2c(F)cc(F)c(F)c2[nH]1)N1CCc2nc(NCC3CCOC3)sc2C1` (stereo not drawn) [Example 106, 5-(4,6,7-trifluoro-1H-indole-2-carbonyl)-N-[(oxolan-3-yl)methyl]-4H,5H,6H,7H-[1,3]thiazolo[5,4-c]pyridin-2-amine], the EC50 in the assay on HBV is under 1 µM. Also, the IC50 at HBV core protein was under 5 µM.
The corresponding values for `CCNC(=O)C1(CNc2nc3c(s2)CN(C(=O)c2cc4ccccc4[nH]2)CC3)CCC1` [Example 417, N-ethyl-1-({[5-(1H-indole-2-carbonyl)-4H,5H,6H,7H-[1,3]thiazolo[5,4-c]pyridin-2-yl]amino}methyl)cyclobutane-1-carboxamide] are under 1 µM and under 5 µM.
Consider `O=C(c1cc2c(Cl)cccc2[nH]1)N1CCc2nc(N[C@H]3CC[C@@H](O)CC3)sc2C1` [Example 302, (1s,4s)-4-{[5-(4-chloro-1H-indole-2-carbonyl)-4H,5H,6H,7H-[1,3]thiazolo[5,4-c]pyridin-2-yl]amino}cyclohexan-1-ol], for which the concentration giving a half-maximal response (EC50) in the assay on HBV is under 1 µM. On HBV core protein, the IC50 was under 5 µM.
Consider `O=C(Nc1nc2c(s1)CN(C(=O)c1cc3ccccc3[nH]1)CC2)NS(=O)(=O)C1CC1` [Example 390, 3-(cyclopropanesulfonyl)-1-[5-(1H-indole-2-carbonyl)-4H,5H,6H,7H-[1,3]thiazolo[5,4-c]pyridin-2-yl]urea], for which, in the assay on HBV, the concentration giving a half-maximal response (EC50) is under 100 µM. Moreover, on HBV core protein, the IC50 was under 5 µM.
For the compound `Nc1nc2c(s1)CN(C(=O)c1cc3c([N+](=O)[O-])cccc3[nH]1)CC2` [Example 145, 5-(4-nitro-1H-indole-2-carbonyl)-4H,5H,6H,7H-[1,3]thiazolo[5,4-c]pyridin-2-amine], the EC50 with HBV is under 1 µM. Besides, the IC50 on HBV core protein is under 5 µM.
Regarding `CN(C)C1(CNc2nc3c(s2)CN(C(=O)c2cc4ccccc4[nH]2)CC3)CCC1` [Example 433, N-{[1-(dimethylamino)cyclobutyl]methyl}-5-(1H-indole-2-carbonyl)-4H,5H,6H,7H-[1,3]thiazolo[5,4-c]pyridin-2-amine], the EC50 in the assay on HBV was under 1 µM. Moreover, the IC50 on HBV core protein is under 5 µM.
Turning to `O=C(c1cc2ccccc2[nH]1)N1CCc2nc(NC[C@H]3CCCC[C@@H]3O)sc2C1` [Example 288, (1S,2R)-2-({[5-(1H-indole-2-carbonyl)-4H,5H,6H,7H-[1,3]thiazolo[5,4-c]pyridin-2-yl]amino}methyl)cyclohexan-1-ol], the EC50 in the assay with HBV is under 1 µM. In addition, the IC50 at HBV core protein was in the range of 5 to 10 µM.
For `Cc1nc2c(s1)CN(C(=O)c1cc3cccc(OC(F)(F)F)c3[nH]1)CC2` [Example 183, 2-{2-methyl-4H,5H,6H,7H-[1,3]thiazolo[5,4-c]pyridine-5-carbonyl}-7-(trifluoromethoxy)-1H-indole] the same measures were under 100 µM and under 100 µM.
For `CC(C)(CC(=O)Nc1nc2c(s1)CN(C(=O)c1cc3ccccc3[nH]1)CC2)C1CC1` [Example 261, 3-cyclopropyl-N-[5-(1H-indole-2-carbonyl)-4H,5H,6H,7H-[1,3]thiazolo[5,4-c]pyridin-2-yl]-3-methylbutanamide], in the assay on HBV, the EC50 is under 1 µM. Moreover, the IC50 at HBV core protein was under 100 µM.
For `O=C(c1cc2ccc(Cl)cc2[nH]1)N1CCc2nc(N[C@H]3CC[C@@H](O)CC3)sc2C1` [Example 301, (1s,4s)-4-{[5-(6-chloro-1H-indole-2-carbonyl)-4H,5H,6H,7H-[1,3]thiazolo[5,4-c]pyridin-2-yl]amino}cyclohexan-1-ol], the EC50 in the assay with HBV was under 1 µM. At HBV core protein, the IC50 was under 5 µM.
Turning to `Nc1nc2c(s1)CN(C(=O)c1cc3cc(F)c(Cl)cc3[nH]1)CC2` [Example 277, 5-(6-chloro-5-fluoro-1H-indole-2-carbonyl)-4H,5H,6H,7H-[1,3]thiazolo[5,4-c]pyridin-2-amine], the EC50 with HBV was under 1 µM. Further, the IC50 at HBV core protein was under 5 µM.
In the case of `O=C(c1cc2ccc(Cl)cc2[nH]1)N1CCc2nc(NCC3CCOC3)sc2C1` (stereo not drawn) [Example 125, 5-(6-chloro-1H-indole-2-carbonyl)-N-[(oxolan-3-yl)methyl]-4H,5H,6H,7H-[1,3]thiazolo[5,4-c]pyridin-2-amine], the EC50 in the assay on HBV was under 1 µM. In addition, the IC50 at HBV core protein was under 5 µM.
`CC(C)(C)OC(=O)N1CCOC(CNc2nc3c(s2)CN(C(=O)c2cc4ccccc4[nH]2)CC3)C1` (stereo not drawn) [Example 273, tert-butyl 2-({[5-(1H-indole-2-carbonyl)-4H,5H,6H,7H-[1,3]thiazolo[5,4-c]pyridin-2-yl]amino}methyl)morpholine-4-carboxylate]: in the assay with HBV, the EC50 was under 1 µM. The IC50 at HBV core protein lay in the range of 5 to 10 µM.
As to `CC(C)[C@H](N)C(=O)OCC1(CNc2nc3c(s2)CN(C(=O)c2cc4c(Cl)cc(F)cc4[nH]2)CC3)CC1` [Example 229, [1-({[5-(4-chloro-6-fluoro-1H-indole-2-carbonyl)-4H,5H,6H,7H-[1,3]thiazolo[5,4-c]pyridin-2-yl]amino}methyl)cyclopropyl]methyl (2S)-2-amino-3-methylbutanoate], in the assay with HBV, the EC50 is under 1 µM. The IC50 on HBV core protein was under 5 µM.
As for `O=C(c1cc2c(F)ccc(F)c2[nH]1)N1CCc2nc(NCC3(CO)CC3)sc2C1` [Example 59, [1-({[5-(4,7-difluoro-1H-indole-2-carbonyl)-4H,5H,6H,7H-[1,3]thiazolo[5,4-c]pyridin-2-yl]amino}methyl)cyclopropyl]methanol], the half-maximal effective concentration (EC50) in the assay with HBV was under 1 µM. In addition, on HBV core protein, the 50% inhibitory concentration (IC50) is under 5 µM.
For the compound `CCc1cc(F)cc2[nH]c(C(=O)N3CCc4nc(NCC5CCOC5)sc4C3)cc12` (stereo not drawn) [Example 255, 5-(4-ethyl-6-fluoro-1H-indole-2-carbonyl)-N-[(oxolan-3-yl)methyl]-4H,5H,6H,7H-[1,3]thiazolo[5,4-c]pyridin-2-amine], in the assay with HBV, the EC50 was under 1 µM. Besides, the IC50 on HBV core protein is under 5 µM.
On to `O=C(c1cc2c(Br)cccc2[nH]1)N1CCc2nc(NCC3(O)CCC3)sc2C1` [Example 364, 1-({[5-(4-bromo-1H-indole-2-carbonyl)-4H,5H,6H,7H-[1,3]thiazolo[5,4-c]pyridin-2-yl]amino}methyl)cyclobutan-1-ol], for which, in the assay with HBV, the EC50 was under 1 µM. In addition, at HBV core protein, the IC50 is under 5 µM.
As for `CC(O)c1cccc2[nH]c(C(=O)N3CCc4nc(NCC5(CO)CC5)sc4C3)cc12` (stereo not drawn) [Example 250, 1-{2-[2-({[1-(hydroxymethyl)cyclopropyl]methyl}amino)-4H,5H,6H,7H-[1,3]thiazolo[5,4-c]pyridine-5-carbonyl]-1H-indol-4-yl}ethan-1-ol], the EC50 with HBV was under 1 µM. Also, the IC50 on HBV core protein is under 100 µM.
Regarding `Nc1nc2c(s1)CN(C(=O)c1cc3cc(Cl)c(Cl)cc3[nH]1)CC2` [Example 135, 5-(5,6-dichloro-1H-indole-2-carbonyl)-4H,5H,6H,7H-[1,3]thiazolo[5,4-c]pyridin-2-amine], in the assay with HBV, the EC50 lay in the range of 1 to 10 µM. Further, the IC50 on HBV core protein fell in the range of 5 to 10 µM.
Regarding `O=C(Nc1nc2c(s1)CN(C(=O)c1cc3ccccc3[nH]1)CC2)C1CCC(O)CC1` (stereo not drawn) [Example 411, 4-hydroxy-N-[5-(1H-indole-2-carbonyl)-4H,5H,6H,7H-[1,3]thiazolo[5,4-c]pyridin-2-yl]cyclohexane-1-carboxamide], the EC50 in the assay on HBV is under 1 µM. In addition, at HBV core protein, the IC50 was under 5 µM.
